The source of these data is US10508086B2 (CANCER RESEARCH TECHNOLOGY LIMITED, priority 2014, dated 2019).

A value given as a limit tells only on which side of the number the result lay.

Assay [1] has as its target Human High specific Activity PARP1 (Homo sapiens (Human), UniProt P09874). The experiment in a line: PARP1 in vitro selectivity assay (histone PARylation, luminescence). In kind it is biochemical. Conditions: read-out: PARP1 Biochem IC50. On the procedure: PARP1 In vitro selectivity assays were conducted as a 10 ul reaction volume in a NUNC Maxisorp 384-well assay plate pre-coated in-house with Histones. 5 ul of Human High specific Activity PARP1 (Trevigen: 4668-100-01) was used at a final reaction concentration of 0.02 units/ml in 1×PARP Buffer (Trevigen: 4671-096-02) with 5 ul of 1×PARP cocktail, which is a mixture of 10×PARP Cocktail (Trevigen: 4671-096-03), 10× Activate DNA (Trevigen: 4671-096-06) and 20×PARP Buffer (as above). The reaction was incubated at room temperature for 60 minutes to allow histones on the coated plate to become PARylated. The wells were then washed with PBS/0.1% Triton X100. PARP1 activity was then detected by measuring the extent of PARylation. Firstly, 10 ul of Streptavidin-HRP (Trevigen: 4800-30-06), diluted 1 in 250 in 1×PARG Assay Buffer (Trevigen: 4680-096-02), was added to each well and incubated at room temperature for 60 minutes. Secondly, following another wash with PBS/0.1% Triton X100, Peroxy Glow Reagents A and B (Trevigen: 4675-096-01 and 4675-096-02) were mixed in equal quantities immediately before use and 100 ul was added to each well. Luminescence signal was then measured immediately.

Assay [2] addresses Human Full Length PARG (Homo sapiens (Human), UniProt Q86W56). The experiment in a line: PARG in vitro enzyme assay (TR-FRET). The assay is classed as biochemical. Conditions: read-out: PARG_EC50_ENZYME. Summed up:
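Full-length human PARG ([…]) incubated with ribosylated PARP substrate (4.5 nM) for 10 min at room temperature in Tris pH 7.4 buffer with EDTA, EGTA, DTT, KCl. Detection by TR-FRET using anti-6HIS XL665 (14 nM final) and streptavidin europium cryptate (0.75 nM final) after 60 min; Em665/Em620 ratio converted to percent inhibition.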

The target of assay [3] is Human Full Length ARH3 (Homo sapiens (Human), UniProt Q9NX46). The experiment in a line: ARH3 in vitro selectivity assay (TR-FRET). The assay is classed as biochemical. Conditions: read-out: ARH3 Biochem IC50. On the procedure:
ARH3 In vitro selectivity assays were conducted in a total volume of 15 ul in a standard 384 well format. 5 ul of Human Full Length ARH3 (Enzo Life Sciences: ALX-201-292), used at a final reaction concentration of 17.5 nM, was added to 5 ul of Ribosylated PARP substrate (also produced internally by Astra Zeneca) at final reaction concentration of 4.5 nM in assay buffer (50 mM Tris pH7.4, 0.1 mg/ml BSA, 3 mM EDTA, 0.4 mM EGTA, 1 mM DTT, 0.01% Tween 20, 50 mM KCl). The reaction was incubated at room temperature for 30 minutes and then 5 ul detection reagent was added. Detection Reagent consists of 42 nM MAb Anti-6HIS XL665 (CisBio: 61HISXLB) and 2.25 nM Streptavidin Europium Cryptate (CisBio: 610SAKLB), both at 3× working stock concentrations (final concentrations of 14 nM and 0.75 nM respectively), in a detection buffer of 50 mM Tris pH7.4, BSA at 0.1 mg/ml and KF at 100 mM. Following incubation at room temperature for 60 minutes in the dark, TR-FRET signal was measured at Ex 340 and Em 665 and Em 620. A ratio was calculated as Em665/EM620×104 for each well and used to calculate percent inhibition for test compounds.

Assay [4] addresses PARG in HeLa cell line (Homo sapiens (Human), UniProt Q86W56). The experiment in a line: PARG cell assay (nuclear PAR chains after MMS, immunofluorescence). The assay is classed as cell-based. To be noted: HeLa cells, MMS 50 μg/mL; read-out: PARG Cell IC50 Geomean. Summed up:
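HeLa cells pre-dosed 1 h with compound (10-point dose response), then MMS 50 μg/mL for a further hour at 37 °C. Fixed cells immunostained with anti-PAR antibody plus Alexa Fluor 488 secondary and Hoechst. High-content imaging quantified nuclear PAR fluorescence intensity; inhibition maintains PAR chains.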

Human Full Length ARH3, sequence (Q9NX46 whole entry): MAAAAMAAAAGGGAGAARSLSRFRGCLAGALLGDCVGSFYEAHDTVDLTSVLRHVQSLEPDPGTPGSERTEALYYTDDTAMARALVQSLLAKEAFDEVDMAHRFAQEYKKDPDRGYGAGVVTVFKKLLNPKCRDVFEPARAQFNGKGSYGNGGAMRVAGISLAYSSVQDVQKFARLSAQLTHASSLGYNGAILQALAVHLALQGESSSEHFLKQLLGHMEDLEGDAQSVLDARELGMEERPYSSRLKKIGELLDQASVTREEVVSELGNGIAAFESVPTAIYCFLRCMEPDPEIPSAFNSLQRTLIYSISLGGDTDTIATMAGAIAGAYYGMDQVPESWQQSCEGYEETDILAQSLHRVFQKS
Human High specific Activity PARP1, sequence (P09874 whole entry): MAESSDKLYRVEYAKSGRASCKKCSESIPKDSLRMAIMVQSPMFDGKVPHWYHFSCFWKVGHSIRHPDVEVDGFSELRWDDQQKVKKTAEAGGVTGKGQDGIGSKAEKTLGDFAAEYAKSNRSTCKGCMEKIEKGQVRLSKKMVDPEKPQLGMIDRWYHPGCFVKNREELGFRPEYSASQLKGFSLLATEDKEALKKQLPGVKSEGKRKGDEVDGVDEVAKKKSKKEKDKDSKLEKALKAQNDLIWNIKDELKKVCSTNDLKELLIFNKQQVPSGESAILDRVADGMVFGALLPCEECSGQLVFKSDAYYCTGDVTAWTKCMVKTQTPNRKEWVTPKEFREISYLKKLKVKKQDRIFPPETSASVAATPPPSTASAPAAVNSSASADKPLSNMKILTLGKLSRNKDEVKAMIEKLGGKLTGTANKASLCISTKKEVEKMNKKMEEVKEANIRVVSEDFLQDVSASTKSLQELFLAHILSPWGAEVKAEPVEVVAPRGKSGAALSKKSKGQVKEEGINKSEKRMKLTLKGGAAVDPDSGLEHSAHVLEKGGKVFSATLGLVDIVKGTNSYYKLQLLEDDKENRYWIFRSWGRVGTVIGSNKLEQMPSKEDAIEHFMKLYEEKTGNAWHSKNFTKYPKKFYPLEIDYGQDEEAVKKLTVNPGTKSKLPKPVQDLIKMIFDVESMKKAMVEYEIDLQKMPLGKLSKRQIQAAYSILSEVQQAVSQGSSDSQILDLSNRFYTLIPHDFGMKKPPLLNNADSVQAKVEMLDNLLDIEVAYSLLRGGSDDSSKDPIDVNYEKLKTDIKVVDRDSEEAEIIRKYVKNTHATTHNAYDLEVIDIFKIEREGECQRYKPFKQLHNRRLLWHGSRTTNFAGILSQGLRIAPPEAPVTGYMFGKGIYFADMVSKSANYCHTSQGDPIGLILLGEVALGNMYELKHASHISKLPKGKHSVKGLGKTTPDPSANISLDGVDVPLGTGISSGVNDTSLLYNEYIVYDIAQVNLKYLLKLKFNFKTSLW
PARG in HeLa cell line, sequence (Q86W56 whole entry): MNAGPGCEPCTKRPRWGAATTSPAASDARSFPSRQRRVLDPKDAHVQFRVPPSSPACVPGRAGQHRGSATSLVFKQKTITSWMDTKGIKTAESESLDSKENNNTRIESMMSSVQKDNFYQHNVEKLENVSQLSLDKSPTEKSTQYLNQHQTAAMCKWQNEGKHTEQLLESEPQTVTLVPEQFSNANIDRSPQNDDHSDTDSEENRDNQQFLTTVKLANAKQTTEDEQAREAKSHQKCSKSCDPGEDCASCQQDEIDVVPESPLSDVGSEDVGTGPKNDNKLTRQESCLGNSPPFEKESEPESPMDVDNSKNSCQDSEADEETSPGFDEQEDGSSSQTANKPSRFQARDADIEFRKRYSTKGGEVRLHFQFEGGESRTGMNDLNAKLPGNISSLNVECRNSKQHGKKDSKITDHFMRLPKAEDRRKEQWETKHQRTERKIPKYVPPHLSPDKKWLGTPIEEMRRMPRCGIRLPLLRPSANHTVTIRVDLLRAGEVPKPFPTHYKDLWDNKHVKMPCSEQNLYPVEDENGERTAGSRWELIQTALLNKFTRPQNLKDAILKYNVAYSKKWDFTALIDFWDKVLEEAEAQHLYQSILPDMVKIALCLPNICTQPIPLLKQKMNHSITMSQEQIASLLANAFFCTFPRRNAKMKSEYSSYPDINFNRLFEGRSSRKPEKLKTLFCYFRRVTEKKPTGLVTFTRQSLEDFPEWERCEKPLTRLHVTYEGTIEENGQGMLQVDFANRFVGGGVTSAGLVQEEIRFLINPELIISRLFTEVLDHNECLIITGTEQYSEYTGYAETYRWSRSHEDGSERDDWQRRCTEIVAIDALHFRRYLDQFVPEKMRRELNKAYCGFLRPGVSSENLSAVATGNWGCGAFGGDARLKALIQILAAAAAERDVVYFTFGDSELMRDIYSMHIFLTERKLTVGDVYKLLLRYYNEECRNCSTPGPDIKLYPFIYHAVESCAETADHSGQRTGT
Human Full Length PARG, sequence (Q86W56 whole entry): as above

As for `CC1(NS(=O)(=O)c2ccc3c(c2)N(C(=O)CN2CCOC2=O)CC3)CC1` [Example 14, N-(1-Methylcyclopropyl)-1-[2-(2-oxooxazolidin-3-yl)acetyl]indoline-6-sulfonamide], the IC50 in assay [1] and in assay [3] was > 150000 nM in each case. Besides, the EC50 in assay [2] came out at 4280 nM.
As for `Cc1nnc(-n2c(=O)n(Cc3ccc(F)cc3)c3ccc(S(=O)(=O)NC4(C)CC4)cc32)s1` [Example 73], the figures for the IC50 in assay [1], in assay [4] and in assay [3] were > 150000 nM, 107 nM and > 100000 nM, respectively. Besides, the EC50 in assay [2] was found to be 636 nM.
Consider `Cn1c(=O)n(-c2nnc(C(F)F)s2)c2cc(S(=O)(=O)NC3(C)CC3)ccc21` [Example 79], for which the IC50 in assay [1] is > 150000 nM; in assay [3] it was > 100000 nM. For the same compound, the EC50 in assay [2] was 652 nM.
Take `Cc1nnc(-n2c(=O)n(CC3CC3)c3ccc(S(=O)(=O)NC4(C)CC4)cc32)s1` [Example 82]: the IC50 is > 150000 nM in assay [1], 193 nM in assay [4] and > 100000 nM in assay [3]. The EC50 in assay [2] worked out at 155 nM.
Taken in the same sequence, the figures for `Cc1ncc(Cn2c(=O)n(-c3nnc(C)s3)c3cc(S(=O)(=O)NC4(C)CC4)ccc32)s1` [Example 83] were > 150000 nM, 127 nM, > 100000 nM and 151 nM.
Regarding `Cc1cc(Cc2nc3ccc(S(=O)(=O)NC4(C)CC4)cc3n2-c2nnc(C)s2)on1` [Example 118], the IC50 in assay [1] and in assay [3] was > 150000 nM in each case. Further, the EC50 in assay [2] is 671 nM.
As for `Cc1nnc(-n2cnc3ccc(S(=O)(=O)NC4(C)CC4)cc32)s1` [Example 119], the IC50 in assay [1] and in assay [3] was > 150000 nM in each case. In assay [2], the EC50 is 1030 nM.
Take `Cc1nnc(-n2nc(Cc3ccc(F)cc3)c3ccc(S(=O)(=O)NC4(C)CC4)cc32)s1` [Example 146, 3-[(4-Fluorophenyl)methyl]-N-(1-methylcyclopropyl)-1-(5-methyl-1,3,4-thiadiazol-2-yl)indazole-6-sulfonamide]: the values for the IC50 in assay [1] and in assay [3] were > 150000 nM and > 16700 nM, respectively. Besides, the EC50 in assay [2] turned out to be 1190 nM.
Consider `CCn1c(=O)n(-c2nnc(C(F)F)o2)c2cc(S(=O)(=O)NC3(CF)CC3)c(F)cc21` [Example 200, 3-[5-(Difluoromethyl)-1,3,4-oxadiazol-2-yl]-1-ethyl-6-fluoro-N-[1-(fluoromethyl)cyclopropyl]-2-oxo-benzimidazole-5-sulfonamide], for which the EC50 in assay [2] stood at 112 nM. Moreover, the half-maximal inhibitory concentration (IC50) is 126 nM in assay [4] and > 150000 nM in assay [3].
Consider `Cn1c(=O)n(-c2ccc(C(F)(F)F)nn2)c2cc(S(=O)(=O)NC3(CF)CC3)c(F)cc21` [Example 206, 6-Fluoro-N-[1-(fluoromethyl)cyclopropyl]-1-methyl-2-oxo-3-[6-(trifluoromethyl)pyridazin-3-yl]benzimidazole-5-sulfonamide], for which, in assay [2], the EC50 was 3970 nM. Also, the IC50 in assay [4] came out at 970 nM.
Consider `CCn1c(=O)n(-c2nnc(C(F)F)s2)c2cc(S(=O)(=O)NC3(C)CC3)c(F)cc21` [Example 207, 3-[5-(Difluoromethyl)-1,3,4-thiadiazol-2-yl]-1-ethyl-6-fluoro-N-(1-methylcyclopropyl)-2-oxo-benzimidazole-5-sulfonamide], for which the EC50 in assay [2] was 133 nM. Further, in assay [4], the IC50 came to 24 nM.
The matching figures for `Cn1c(=O)n(-c2nnc(C(F)F)o2)c2cc(S(=O)(=O)NC3(C)CC3)c(F)cc21` [Example 209, 3-[5-(Difluoromethyl)-1,3,4-oxadiazol-2-yl]-6-fluoro-1-methyl-N-(1-methylcyclopropyl)-2-oxo-benzimidazole-5-sulfonamide]: 930 nM and 219 nM.
The matching figures for `Cn1c(=O)n(-c2nnc(C(F)F)o2)c2cc(S(=O)(=O)NC3(CF)CC3)c(F)cc21` [Example 210, 3-[5-(Difluoromethyl)-1,3,4-oxadiazol-2-yl]-6-fluoro-N-[1-(fluoromethyl)cyclopropyl]-1-methyl-2-oxo-benzimidazole-5-sulfonamide]: 349 nM and 224 nM.
As for `CC1(NS(=O)(=O)c2cc3c(cc2F)n(CCF)c(=O)n3-c2nnc(C(F)F)o2)CC1` [Example 211, 3-[5-(Difluoromethyl)-1,3,4-oxadiazol-2-yl]-6-fluoro-1-(2-fluoroethyl)-N-(1-methylcyclopropyl)-2-oxo-benzimidazole-5-sulfonamide], the EC50 in assay [2] stood at 401 nM. Moreover, the figures for the half-inhibitory concentration (IC50) in assay [4] and in assay [3] were 135 nM and > 150000 nM, respectively.
Taken in the same sequence, the figures for `O=c1n(CCF)c2cc(F)c(S(=O)(=O)NC3(CF)CC3)cc2n1-c1nnc(C(F)F)o1` [Example 212, 3-[5-(Difluoromethyl)-1,3,4-oxadiazol-2-yl]-6-fluoro-1-(2-fluoroethyl)-N-[1-(fluoromethyl)cyclopropyl]-2-oxo-benzimidazole-5-sulfonamide] were 129 nM, 110 nM and > 150000 nM.
The matching figures for `C#CCn1c(=O)n(-c2nnc(C(F)F)s2)c2cc(S(=O)(=O)NC3(CF)CC3)c(F)cc21` [Example 213, 3-[5-(Difluoromethyl)-1,3,4-thiadiazol-2-yl]-6-fluoro-N-[1-(fluoromethyl)cyclopropyl]-2-oxo-1-prop-2-ynyl-benzimidazole-5-sulfonamide]: 29 nM, 16 nM and > 150000 nM.
For `NC(=O)Cn1c(=O)n(-c2nnc(C(F)F)s2)c2cc(S(=O)(=O)NC3(CF)CC3)c(F)cc21` [Example 214, 2-[3-[5-(Difluoromethyl)-1,3,4-thiadiazol-2-yl]-6-fluoro-5-[[1-(fluoromethyl)cyclopropyl]sulfamoyl]-2-oxo-benzimidazol-1-yl]acetamide], the EC50 in assay [2] amounted to 165 nM. Also, the IC50 in assay [4] turned out to be 1520 nM.
Taken in the same sequence, the figures for `N#CCn1c(=O)n(-c2nnc(C(F)F)s2)c2cc(S(=O)(=O)NC3(CF)CC3)c(F)cc21` [Example 215, 1-(Cyanomethyl)-3-[5-(difluoromethyl)-1,3,4-thiadiazol-2-yl]-6-fluoro-N-[1-(fluoromethyl)cyclopropyl]-2-oxo-benzimidazole-5-sulfonamide] were 170 nM and 86 nM.
With `O=c1n(CCF)c2cc(F)c(S(=O)(=O)NC3(CF)CC3)cc2n1-c1nnc(C(F)F)s1` [Example 216, 3-[5-(Difluoromethyl)-1,3,4-thiadiazol-2-yl]-6-fluoro-1-(2-fluoroethyl)-N-[1-(fluoromethyl)cyclopropyl]-2-oxo-benzimidazole-5-sulfonamide], in assay [2], the EC50 amounted to 51 nM. Besides, the concentration for half-maximal inhibition (IC50) in assay [4] is 33 nM; in assay [3] it was > 150000 nM.
As to `CC1(NS(=O)(=O)c2cc3c(cc2F)n(CCF)c(=O)n3-c2nnc(C(F)F)s2)CC1` [Example 217, 3-[5-(Difluoromethyl)-1,3,4-thiadiazol-2-yl]-6-fluoro-1-(2-fluoroethyl)-N-(1-methylcyclopropyl)-2-oxo-benzimidazole-5-sulfonamide], in assay [2], the EC50 was found to be 156 nM. The IC50 in assay [4] was found to be 36 nM.
The matching figures for `CCOC(=O)c1oc2ccc(S(=O)(=O)NC3(C)CC3)cc2c1C` [Example 218, Ethyl 3-methyl-5-[(1-methylcyclopropyl)sulfamoyl]benzofuran-2-carboxylate]: 15800 nM and 2810 nM.
